# Results reported in patent US20250388565A1, “ESTROGEN RECEPTOR ALPHA DEGRADERS AND METHODS OF USE THEREOF” (Relay Therapeutics, Inc., priority 2022, published 2025).
# Biological target: T1, ERα protein (HiBiT-tagged) in ESR1_HiBiT KI MCF7 cells (Homo sapiens, UniProt P03372)
# T1 sequence (P03372 1-595): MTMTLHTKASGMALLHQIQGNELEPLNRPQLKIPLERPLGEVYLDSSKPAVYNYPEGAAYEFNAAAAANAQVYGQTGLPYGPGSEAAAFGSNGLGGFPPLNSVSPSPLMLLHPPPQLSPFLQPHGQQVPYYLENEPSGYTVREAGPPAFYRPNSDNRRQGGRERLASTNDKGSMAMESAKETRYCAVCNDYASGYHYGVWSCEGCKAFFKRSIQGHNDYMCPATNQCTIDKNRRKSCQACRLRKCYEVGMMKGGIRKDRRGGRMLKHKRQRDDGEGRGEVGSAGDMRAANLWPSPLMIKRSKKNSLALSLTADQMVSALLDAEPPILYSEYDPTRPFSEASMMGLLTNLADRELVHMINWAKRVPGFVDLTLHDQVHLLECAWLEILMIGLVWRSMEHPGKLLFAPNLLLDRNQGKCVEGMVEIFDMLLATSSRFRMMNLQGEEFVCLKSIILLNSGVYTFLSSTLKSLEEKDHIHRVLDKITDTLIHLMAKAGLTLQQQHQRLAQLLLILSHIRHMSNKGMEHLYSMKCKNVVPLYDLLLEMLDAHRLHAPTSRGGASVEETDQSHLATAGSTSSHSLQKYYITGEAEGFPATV
# Test: Nano Glo HiBiT Lytic Degradation Assay
# Format: cell-based
# Details: 6 hours with compound, 14-point dose response 1:3, bell-shape curve fit, half-maximal effect of first Hill model, read-out: MCF7 ESR1 HiBiT - (DC50)
# Procedure: Selected compounds of the present disclosure were tested in a Nano Glo HiBiT Lytic Degradation Assay to measure the level of ERα protein degradation in MCF7 cells.
# Cell culture: ESR1_HiBiT KI MCF7 cells were maintained in growth media without antibiotics. Cells were maintained in exponential growth phase, between 40% and 90% confluency.
# Cell seeding: Cells were counted using a Vi-Cell and seeded in a 384-well flat-bottom microplate (cell culture-treated) at 4000 cells/well in 25 μL of growth medium using a BioTek MultiFlo Multimode Dispenser. Plates were incubated for 24 h at 37° C., 5% CO2, >95% relative humidity.
# Compound preparation: Compounds were screened as 14-point dose response curves 1:3 dilutions. DMSO is used as the vehicle control and all wells were normalized to the same final DMSO concentration (0.1% v/v). Compounds were dosed using an Echo Acoustic Liquid Handler, 25 nL of 1000× (10 mM top concentration) DMSO stock/well. Cells were incubated with compounds for 6 hours at 37° C., 5% CO2, >95% relative humidity. Each compound was run in duplicate.
# Nano Glo HiBiT Lytic Degradation Assay: HiBiT-tagged ERα protein levels were quantified using a Nano Glo HiBiT Lytic Degradation Assay following the manufacturer's protocol. Briefly, the Nano-Glo® HiBiT Lytic Reagent was prepared by diluting the LgBiT Protein reagent (1:100) and the Nano-Glo® HiBiT Lytic Substrate (1:50) into Nano-Glo® HiBiT Lytic Buffer at room temperature. The 384-well microplate were equilibrated to room temperature and 25 μL of Nano-Glo® HiBiT Lytic Reagent was added to each well. Samples were mixed by placing the 384-well microplate on an orbital shaker for 10 minutes. Luminescence was measured using an EnVision 2105 Multimode Plate Reader.
# Data processing and analysis: Background signal (wells containing growth medium without cells) was subtracted from individual relative light units (RLU) values and the resulting values were normalized to the DMSO control well values. Dose responses were analyzed with Genedata Screener® using a bell-shape curve fit and the concentrations corresponding to the half-maximal effect of the first Hill model were used as DC50 values.
row,Structure (SMILES),DC50 [nM]
1,"O=C1CC[C@H](N2Cc3cc(N4CCN(CC5CCN(c6ccc([C@H]7c8ccc(O)cc8CO[C@@]78CCCc7ccccc78)cc6)CC5)CC4)ccc3C2=O)C(=O)N1 (single isomer, unassigned) [Compound I-273]",6
2,"Cn1c(=O)n([C@H]2CCC(=O)NC2=O)c2ccc(N3CCN(CC4CCN(c5ccc([C@@H]6c7ccc(O)cc7CC[C@@H]6c6ccccc6)cc5)CC4)CC3)cc21 (single isomer, unassigned) [Compound I-275]",0.25
3,"Cn1c(=O)n([C@@H]2CCC(=O)NC2=O)c2ccc(N3CCN(CC4CCN(c5ccc([C@@H]6c7ccc(O)cc7CC[C@@H]6c6ccccc6)cc5)CC4)CC3)cc21 (single isomer, unassigned) [Compound I-276]",0.5
4,"O=C1CCC(c2ccc(N3CC[C@@]4(CCN(CC5CCN(c6ccc([C@@H]7c8ccc(O)cc8CC[C@@H]7c7ccccc7)cc6)CC5)C4)C3)cc2)C(=O)N1 (single isomer, unassigned) [Compound I-280]",0.76
5,"O=C1CCC(c2ccc(N3CCC4(CCN(CC5CCN(c6ccc([C@@H]7c8ccc(O)cc8C(F)(F)C[C@@H]7c7ccccc7)cc6)CC5)C4)C3)cc2)C(=O)N1 (single isomer, unassigned) [Compound I-282, 3-(4-((R*)-7-((1-(4-((1R,2S)-4,4-difluoro-6-hydroxy-2-phenyl-1,2,3,4-tetrahydronaphthalen-1-yl)phenyl)piperidin-4-yl)methyl)-2,7-diazaspiro[4.4]nonan-2-yl)phenyl)piperidine-2,6-dione]",24.5
6,"O=C1CC[C@H](c2ccc(N3CCC4(CCN(CC5CCN(c6ccc([C@@H]7c8ccc(O)cc8CC[C@@H]7c7ccccc7)cc6)CC5)C4)CC3)cc2)C(=O)N1 (single isomer, unassigned) [Compound I-283]",5
7,"O=C1CC[C@@H](c2ccc(N3CCC4(CCN(CC5CCN(c6ccc([C@@H]7c8ccc(O)cc8CC[C@@H]7c7ccccc7)cc6)CC5)C4)CC3)cc2)C(=O)N1 (single isomer, unassigned) [Compound I-284]",≥ 10000
8,"O=C1CC[C@H](c2ccc(N3CCC4(CCN(CC5CCN(c6ccc([C@@H]7c8ccc(O)cc8C(F)(F)C[C@@H]7c7ccccc7)cc6)CC5)C4)CC3)cc2)C(=O)N1 (single isomer, unassigned) [Compound I-285]",0.27
9,"O=C1CCN(c2ccc(N3CC[C@@]4(CCN(CC5CCN(c6ccc([C@@H]7c8ccc(O)cc8CC[C@@H]7c7ccccc7)cc6)CC5)C4)C3)cc2)C(=O)N1 (single isomer, unassigned) [Compound I-288]",≥ 10000
10,"Cc1cc(N2CCC3(CCN(CC4CCN(c5ccc([C@@H]6c7ccc(O)cc7C(F)(F)C[C@@H]6c6ccccc6)cc5)CC4)C3)CC2)ccc1N1CCC(=O)NC1=O (single isomer, unassigned) [Compound I-294]",0.28
11,"Cn1nc([C@@H]2CCC(=O)NC2=O)c2ccc(N3CCN(CC4CCN(c5ccc([C@@H]6c7ccc(O)cc7CC[C@@H]6c6ccccc6)cc5)CC4)CC3)cc21 (single isomer, unassigned) [Compound I-296]",1
12,"Cc1ccc([C@H]2CC(F)(F)c3cc(O)ccc3[C@H]2c2ccc(N3CCC(CN4CCN(c5ccc6c(c5)CN([C@H]5CCC(=O)NC5=O)C6=O)CC4)CC3)cc2)cc1 (single isomer, unassigned) [Compound I-320, (S)-3-(5-(4-((1-(4-((1*S, 2*R)-4,4-difluoro-6-hydroxy-2-(p-tolyl)-1,2,3,4-tetrahydronaphthalen-1-yl)phenyl)piperidin-4-yl)methyl)piperazin-1-yl)-1-oxoisoindolin-2-yl)piperidine-2,6-dione]",0.006

# Now from value to molecule:
row,DC50 [nM],Structure (SMILES)
1,4,"O=C1CC[C@H](N2Cc3cc(N4CCN(CC5CCN(c6ccc([C@@H]7c8ccc(O)cc8CO[C@]78CCCc7ccccc78)cc6)CC5)CC4)ccc3C2=O)C(=O)N1 (single isomer, unassigned) [Compound I-272]"
2,0.3,"Cn1c(=O)n([C@H]2CCC(=O)NC2=O)c2ccc(N3CCN(CC4CCN(c5ccc([C@@H]6c7ccc(O)cc7C(F)(F)C[C@@H]6c6ccccc6)cc5)CC4)CC3)cc21 (single isomer, unassigned) [Compound I-277]"
3,12.1,"Cn1c(=O)n([C@@H]2CCC(=O)NC2=O)c2ccc(N3CCN(CC4CCN(c5ccc([C@@H]6c7ccc(O)cc7C(F)(F)C[C@@H]6c6ccccc6)cc5)CC4)CC3)cc21 (single isomer, unassigned) [Compound I-278]"
4,16.5,"O=C1CCC(c2ccc(N3CC[C@]4(CCN(CC5CCN(c6ccc([C@@H]7c8ccc(O)cc8CC[C@@H]7c7ccccc7)cc6)CC5)C4)C3)cc2)C(=O)N1 (single isomer, unassigned) [Compound I-279]"
5,0.51,"O=C1CCC(c2ccc(N3CC[C@]4(CCN(CC5CCN(c6ccc([C@@H]7c8ccc(O)cc8C(F)(F)C[C@@H]7c7ccccc7)cc6)CC5)C4)C3)cc2)C(=O)N1 (single isomer, unassigned) [Compound I-281]"
6,91.1,"O=C1CC[C@@H](c2ccc(N3CCC4(CCN(CC5CCN(c6ccc([C@@H]7c8ccc(O)cc8C(F)(F)C[C@@H]7c7ccccc7)cc6)CC5)C4)CC3)cc2)C(=O)N1 (single isomer, unassigned) [Compound I-286]"
7,≥ 10000,"O=C1CCN(c2ccc(N3CC[C@]4(CCN(CC5CCN(c6ccc([C@@H]7c8ccc(O)cc8CC[C@@H]7c7ccccc7)cc6)CC5)C4)C3)cc2)C(=O)N1 (single isomer, unassigned) [Compound I-287]"
8,≥ 10000,"O=C1CCN(c2ccc(N3CCC4(CCN(CC5CCN(c6ccc([C@@H]7c8ccc(O)cc8C(F)(F)C[C@@H]7c7ccccc7)cc6)CC5)C4)C3)cc2)C(=O)N1 (single isomer, unassigned) [Compound I-289]"
9,0.22,"O=C1CCN(c2ccc(N3CC[C@@]4(CCN(CC5CCN(c6ccc([C@@H]7c8ccc(O)cc8C(F)(F)C[C@@H]7c7ccccc7)cc6)CC5)C4)C3)cc2)C(=O)N1 (single isomer, unassigned) [Compound I-290]"
10,0.84,"Cn1nc([C@H]2CCC(=O)NC2=O)c2ccc(N3CCN(CC4CCN(c5ccc([C@@H]6c7ccc(O)cc7CC[C@@H]6c6ccccc6)cc5)CC4)CC3)cc21 (single isomer, unassigned) [Compound I-295]"
11,0.74,"Cn1nc(C2CCC(=O)NC2=O)c2ccc(N3CCN(CC4CCN(c5ccc([C@@H]6c7ccc(O)cc7C(F)(F)C[C@@H]6c6ccccc6)cc5)CC4)CC3)cc21 (single isomer, unassigned) [Compound I-297]"
12,1,"Cn1nc(C2CCC(=O)NC2=O)c2ccc(N3CCN(CC4CCN(c5ccc([C@@H]6c7ccc(O)cc7C(F)(F)C[C@@H]6c6ccccc6)cc5)CC4)CC3)cc21 (single isomer, unassigned) [Compound I-298]"
13,0.56,"Cc1cc(F)c([C@H]2CC(F)(F)c3cc(O)ccc3[C@H]2c2ccc(N3CCC(CN4CCN(c5ccc6c(c5)CN([C@H]5CCC(=O)NC5=O)C6=O)CC4)CC3)cc2)cc1F (single isomer, unassigned) [Compound I-324]"
14,11,"Cc1cc(F)c([C@@H]2CC(F)(F)c3cc(O)ccc3[C@@H]2c2ccc(N3CCC(CN4CCN(c5ccc6c(c5)CN([C@H]5CCC(=O)NC5=O)C6=O)CC4)CC3)cc2)cc1F (single isomer, unassigned) [Compound I-325]"
15,≥ 10000,"C[C@H]1C[C@@H](c2ccccc2)[C@@H](c2ccc(N3CCC(CN4CCN(c5ccc6c(c5)CN([C@H]5CCC(=O)NC5=O)C6=O)CC4)CC3)cc2)c2ccc(O)cc21 (single isomer, unassigned) [Compound I-331]"
16,≥ 10000,"C[C@@H]1C[C@@H](c2ccccc2)[C@@H](c2ccc(N3CCC(CN4CCN(c5ccc6c(c5)CN([C@H]5CCC(=O)NC5=O)C6=O)CC4)CC3)cc2)c2ccc(O)cc21 (single isomer, unassigned) [Compound I-332]"
